Data from patent US6472348B1, “Pyridone derivatives and herbicides” (Kumiai Chemical Industry Co., Ltd., priority 1996, dated 2002).

What was measured:
Type in all cases: in vivo
[1] = system: bulrush (Sc); test: Test Example 1: herbicidal effects by paddy field soil treatment; conditions: 100 g of the active ingredient per 10 ares, 21st day after the application, index 0-5 of Table 47;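 also: grade of growth control; 5 = at least 90%; 4 = 70 to 90%; 3 = 50 to 70%; 2 = 30 to 50%; 1 = 10 to 30%; 0 = under 10%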
Protocol: (§1) (Test on Herbicidal Effects by Paddy Field Soil Treatment)
(§2) In a plastic pot (surface area: 100 cm^2) filled with paddy field soil, barnyardgrass (Ec), monochoria (Mo) and bulrush (Sc) were sown after puddling and leveling, and flooded to a water depth of 3 cm. […] The dose was 100 g of the active ingredient per 10 ares. The plants were then cultured in a green house, and the evaluation of the herbicidal effects was conducted on the 21st day after the application in accordance with the standards as identified in Table 47.

[2] = system: barnyardgrass (Ec); test: as above; conditions: 100 g of the active ingredient per 10 ares, 21st day after the application, index 0-5 of Table 47
Protocol: as §1, §2

[3] = system: monochoria (Mo); test: as above; conditions: 100 g of the active ingredient per 10 ares, 21st day after the application, index 0-5 of Table 47;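 also: grade of growth control; 5 = at least 90%; 4 = 70 to 90%; 3 = 50 to 70%; 2 = 30 to 50%; 1 = 10 to 30%; 0 = under 10%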
Protocol: as §1, §2

[4] = system: slender amaranth (Am); test: Test Example 2: herbicidal effects by upland field soil treatment; conditions: 100 g of the active ingredient per 10 ares;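 also: grade of growth control; 5 = at least 90%; 4 = 70 to 90%; 3 = 50 to 70%; 2 = 30 to 50%; 1 = 10 to 30%; 0 = under 10%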
Source text: (§3) (Test on Herbicidal Effects by Upland Field Soil Treatment)

[5] = system: common lambsquarters (Ch); test: as above; conditions: 100 g of the active ingredient per 10 ares
Source text: as §3

[6] = system: rice flatsedge (Ci); test: as above; conditions: 100 g of the active ingredient per 10 ares
Source text: as §3

[7] = system: barnyardgrass (Ec); test: as above; conditions: 100 g of the active ingredient per 10 ares
Source text: as §3

[8] = system: pale smartweed (Po); test: as above; conditions: 100 g of the active ingredient per 10 ares
Source text: as §3

[9] = system: Digitaria ciliaris (Di); test: as above; conditions: 100 g of the active ingredient per 10 ares;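 also: grade of growth control; 5 = at least 90%; 4 = 70 to 90%; 3 = 50 to 70%; 2 = 30 to 50%; 1 = 10 to 30%; 0 = under 10%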
Source text: as §3

[10] = system: slender amaranth (Am); test: Test Example 3: herbicidal effects by upland field foliage treatment; design: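 grade of growth control; 5 = at least 90%; 4 = 70 to 90%; 3 = 50 to 70%; 2 = 30 to 50%; 1 = 10 to 30%; 0 = under 10%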
Protocol: (§4) (Test on Herbicidal Effects by Upland Field Foliage Treatment)
(§5) In a plastic pot (surface area: 120 cm^2) filled with sand, barnyardgrass (Ec), Diaitaria ciliaris (Di), pale smartweed (Po), slender amaranth (Am), common lambsquarters (Ch) and rice flatsedge (Ci) were sown and covered with soil and were cultured in a green house for 2 weeks. […] The plants were then cultured in the green house, and the evaluation of the herbicidal effects was conducted on the 14th day after the treatment in accordance with the standards as identified in Table 47. Symbol—represents “not tested”.

[11] = system: common lambsquarters (Ch); test: as above; design: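 grade of growth control; 5 = at least 90%; 4 = 70 to 90%; 3 = 50 to 70%; 2 = 30 to 50%; 1 = 10 to 30%; 0 = under 10%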
Protocol: as §4, §5

[12] = system: rice flatsedge (Ci); test: as above; design: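 grade of growth control; 5 = at least 90%; 4 = 70 to 90%; 3 = 50 to 70%; 2 = 30 to 50%; 1 = 10 to 30%; 0 = under 10%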
Protocol: as §4, §5

[13] = system: Diaitaria ciliaris (Di); test: as above; design: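 grade of growth control; 5 = at least 90%; 4 = 70 to 90%; 3 = 50 to 70%; 2 = 30 to 50%; 1 = 10 to 30%; 0 = under 10%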
Protocol: as §4, §5

[14] = system: barnyardgrass (Ec); test: as above; design: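 grade of growth control; 5 = at least 90%; 4 = 70 to 90%; 3 = 50 to 70%; 2 = 30 to 50%; 1 = 10 to 30%; 0 = under 10%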
Protocol: as §4, §5

[15] = system: pale smartweed (Po); test: as above; design: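 grade of growth control; 5 = at least 90%; 4 = 70 to 90%; 3 = 50 to 70%; 2 = 30 to 50%; 1 = 10 to 30%; 0 = under 10%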
Protocol: as §4, §5

[16] = 21st day after the application, index 0-5 of Table 47
[17] = 100 g of the active ingredient per 10 ares, evaluated on the 14th day after treatment
[18] = evaluated on the 21st day after application
[19] = 100 g active ingredient per 10 ares, evaluated 14th day after treatment

Row | SMILES | Herbicidal effects Sc [1] | Herbicidal effects Ec [2] | Herbicidal effects Mo [3] | Herbicidal effects Am [4, 16] | Herbicidal effects Ch [5, 16] | Herbicidal effects Ci [6, 16] | Herbicidal effects Ec [7, 16] | Herbicidal effects Po [8, 16] | Herbicidal effects Di [9, 16] | Herbicidal effects Am [10, 17] | Herbicidal effects Ch [11, 17] | Herbicidal effects Ci [12, 17] | Herbicidal effects Di [13, 17] | Herbicidal effects Ec [14, 17] | Herbicidal effects Po [15, 17] | Herbicidal effects Am [4, 18] | Herbicidal effects Ch [5, 18] | Herbicidal effects Ci [6, 18] | Herbicidal effects Ec [7, 18] | Herbicidal effects Po [8, 18] | further results
1 | CCCC(Oc1cc(-c2ccc(C(F)(F)F)n(C)c2=O)c(F)cc1Cl)C(=O)OCC (racemic) [1-121] | 5 | 5 | 5 | 5 | 5 | 5 | 5 | 5 | 5 | 5 | 5 | 5 | 5 | 5 | 5 | – | – | – | – | – | –
2 | CCOC(=O)C(C)OC(=O)c1cc(-c2ccc(C(F)(F)F)n(C)c2=O)c(F)cc1Cl (racemic) [1-143] | 5 | 5 | 5 | 5 | 5 | 5 | 5 | 5 | 5 | 5 | 5 | 5 | 5 | 5 | 5 | – | – | – | – | – | –
3 | Cn1c(C(F)(F)F)ccc(-c2ccc(Cl)cc2Cl)c1=O [1-3] | 5 | 5 | 5 | 5 | 5 | 5 | 5 | 5 | 5 | 5 | 5 | 5 | 5 | 5 | 5 | – | – | – | – | – | –
4 | CCOC(=O)C(C)Oc1cc(-c2ccc(C(F)(F)F)n(C)c2=O)c(F)cc1Cl (stereo not drawn) [1-21] | 5 | 5 | 5 | 5 | 5 | 5 | 5 | 5 | 5 | 5 | 5 | 5 | 5 | 5 | 5 | – | – | – | – | – | –
5 | COCOc1cc(-c2ccc(C(F)(F)F)n(C)c2=O)c(F)cc1Cl [1-24] | 5 | 5 | 5 | 5 | 5 | 5 | 5 | 5 | 5 | 5 | 5 | 5 | 5 | 5 | 5 | – | – | – | – | – | –
6 | CC(C)Oc1cc(-c2ccc(C(F)(F)F)n(C)c2=O)c(Cl)cc1Cl [1-29] | 5 | 5 | 5 | 5 | 5 | 5 | 5 | 5 | 5 | 5 | 5 | 5 | 5 | 5 | 5 | – | – | – | – | – | –
7 | C=CCOc1cc(-c2ccc(C(F)(F)F)n(C)c2=O)c(Cl)cc1Cl [1-32] | 5 | 5 | 5 | 5 | 5 | 5 | 5 | 5 | 5 | 5 | 5 | 5 | 5 | 5 | 5 | – | – | – | – | – | –
8 | CC(C)Sc1cc(-c2ccc(C(F)(F)F)n(C)c2=O)c(Cl)cc1Cl [1-51] | 5 | 5 | 5 | 5 | 5 | 5 | 4 | 5 | 5 | 5 | 5 | 5 | 5 | 4 | 5 | – | – | – | – | – | –
9 | CCS(=O)(=O)Nc1cc(-c2ccc(C(F)(F)F)n(C)c2=O)c(F)cc1Cl [1-61] | 5 | 5 | 5 | 5 | 5 | 5 | 5 | 5 | 5 | 5 | 5 | 5 | 5 | 5 | 5 | – | – | – | – | – | –
10 | CCOC(=O)C(C)Nc1cc(-c2ccc(C(F)(F)F)n(C)c2=O)c(F)cc1Cl (stereo not drawn) [1-64] | 5 | 5 | 5 | 5 | 5 | 5 | 5 | 5 | 5 | 5 | 5 | 5 | 5 | 5 | 5 | – | – | – | – | – | –
11 | CCSC(=O)c1cc(-c2ccc(C(F)(F)F)n(C)c2=O)c(F)cc1Cl [1-67] | 5 | 5 | 5 | 5 | 5 | 5 | 5 | 5 | 5 | 5 | 5 | 5 | 5 | 5 | 5 | – | – | – | – | – | –
12 | C=CCOc1cc(-c2cc(C)c(C(F)(F)F)n(C)c2=O)c(F)cc1Cl [1-77] | 5 | 5 | 5 | 5 | 5 | 5 | 5 | 5 | 5 | 5 | 5 | 5 | 5 | 5 | 5 | – | – | – | – | – | –
13 | CCCN1C(=O)COc2cc(F)c(-c3ccc(C(F)(F)F)n(C)c3=O)cc21 [Compound 2-10] | – | – | – | – | – | – | – | – | – | – | – | – | – | – | – | 5 | 5 | 5 | 5 | 5 | Herbicidal effects Di [9, 18]: 5; Herbicidal effects Am [10, 19]: 5; Herbicidal effects Ch [11, 19]: 5; Herbicidal effects Ci [12, 19]: 5; Herbicidal effects Di [13, 19]: 5; Herbicidal effects Ec [14, 19]: 5; Herbicidal effects Po [15, 19]: 5
14 | Cn1c(C(F)(F)F)ccc(-c2cc3c(cc2F)OCC(=O)N3CC=CCl)c1=O [Compound 2-14] | – | – | – | – | – | – | – | – | – | – | – | – | – | – | – | 5 | 5 | 5 | 5 | 5 | Herbicidal effects Di [9, 18]: 5; Herbicidal effects Am [10, 19]: 5; Herbicidal effects Ch [11, 19]: 5; Herbicidal effects Ci [12, 19]: 5; Herbicidal effects Di [13, 19]: 5; Herbicidal effects Ec [14, 19]: 5; Herbicidal effects Po [15, 19]: 5
15 | COCc1cc2c(-c3ccc(C(F)(F)F)n(C)c3=O)c(Cl)cc(Cl)c2o1 [Compound 4-13] | 5 | 5 | 5 | – | – | – | – | – | – | – | – | – | – | – | – | 5 | 5 | 5 | 5 | 5 | Herbicidal effects Di [9, 18]: 5
16 | CCOCc1cc2c(-c3ccc(C(F)(F)F)n(C)c3=O)c(Cl)cc(Cl)c2o1 [Compound 4-30] | 5 | 5 | 5 | – | – | – | – | – | – | – | – | – | – | – | – | 5 | 5 | 5 | 5 | 5 | Herbicidal effects Di [9, 18]: 5
17 | CCCOC(C)c1cc2c(-c3ccc(C(F)(F)F)n(C)c3=O)c(F)cc(Cl)c2o1 (stereo not drawn) [Compound 4-37] | – | – | – | – | – | – | – | – | – | – | – | – | – | – | – | 5 | 5 | 5 | 5 | 5 | Herbicidal effects Di [9, 18]: 5; Herbicidal effects Am [10, 19]: 5; Herbicidal effects Ch [11, 19]: 5; Herbicidal effects Ci [12, 19]: 5; Herbicidal effects Di [13, 19]: 5; Herbicidal effects Ec [14, 19]: 5; Herbicidal effects Po [15, 19]: 5
18 | Cn1cc(-c2ccc(Cl)cc2F)c(=O)cc1C(F)(F)F [Compound 6-2] | – | – | – | – | – | – | – | – | – | – | – | – | – | – | – | 5 | 5 | 5 | 4 | 5 | Herbicidal effects Di [9, 18]: 5; Herbicidal effects Am [10, 19]: 5; Herbicidal effects Ch [11, 19]: 5; Herbicidal effects Ci [12, 19]: 5; Herbicidal effects Di [13, 19]: 5; Herbicidal effects Ec [14, 19]: 4; Herbicidal effects Po [15, 19]: 5
19 | Cn1c(C(F)(F)F)ccc(-c2ccc(Cl)cc2)c1=O [Compound No. 1-1] | 5 | 5 | 5 | 5 | 5 | 5 | 5 | 5 | 5 | – | – | – | – | – | – | – | – | – | – | – | –
20 | C#CCOc1cc(-c2c(C#N)cc(C(F)(F)F)n(C)c2=O)c(F)cc1Cl [Compound No. 11-6, 3-[2-fluoro-4-chloro-5-(2-propionyloxy)phenyl]-4-cyano-1-methyl-6-trifluoromethyl-2(1H)-pyridone] | 5 | 5 | 5 | – | – | – | – | – | – | – | – | – | – | – | – | 5 | 5 | 5 | 5 | 5 | Herbicidal effects Di [9, 18]: 5
